In patent US20230248847A1, “MULTIFUNCTIONAL NANOPARTICLES FOR THERAGNOSIS” (priority 2018, published 2023):

Legend:
[1] = In vivo toxicity assays (survival, external signs, weight, motor activity); set-up: species or system NSG mice; details: for external side effects observed: intravenous every 3 days
Protocol: All the in vivo experiments were performed in NOD scid gamma mice (NSG, NOD.Cg-Prkdcscid II2rgtmlWjl/SzJ). The animal wellbeing and experimental methods were carried out according to institutional guidelines (Research Ethics Committee of University of Granada, Spain) and international guidelines (European Community Council Directive 86/609). All the animals (n=5 per group) were kept in a micro-ventilated cage system with a 12-h light/darkness cycle, and handled in a laminar flow cabinet to maintain the specific pathogen-free conditions. To establish orthotopic xenograft tumours, female mice six to eight weeks of age were used. The mice were anaesthetised by means of the inhalation of isoflurane and tumours were generated in the right breast by means of subcutaneous injections of 5×10^5 cells/mouse mixed with Corning® Matrigel® Matrix and with 26-gauge needles. The intravenous administration of PBS (control), free DOX, and NPs in the tail vein of the mice was performed every three days for a period of 43 days, as was the fluorescence evaluation by means of IVIS® (Perkin Elmer). Tumour growth was evaluated twice a week with a digital calibrator and tumour volume was calculated by means of the formula V=(length) 2×width×π/6. The weight of the mice was also measured every three days. The endpoint of the experiment was day 44. […] During that month, the fluorescence of the mice was analyzed in IVIS® once a week. Lastly, the mice were sacrificed by cervical dislocation and the tumours were extirpated, photographed, and analyzed by means of IVIS®.
In another assay, a series of experiments were carried out to control the in vivo toxicity of the treatment. […] The percentage of survival (FIG. 12) during the treatment period was 100% both for mice treated with NPs and for controls. However, treatment with DOX caused a high impact on survival. After 30 days of treatment, there was a drastic decrease in the percentage of survival (30%). This effect could be attributed to the inherent systemic toxicity of this anti-tumour drug and to the serious side effects of this conventional chemotherapy treatment.
Furthermore, in order to observe the toxic effect of the treatment at the central nervous system level, a standardised protocol for testing movement was carried out on day 30 in a cage with a camera prepared for this purpose. This camera analyzes the distance the mouse travels in 24 hours.

[2] = tested on: orthotopic xenograft tumours of MDA-MB-231 breast cancer cell line; assay: In vivo therapeutic efficacy, orthotopic MDA-MB-231 breast cancer xenograft; set-up: species or system NSG mice
Protocol: An orthotopic xenotransplantation of the triple-negative human MDA-MB-231 breast cancer cell line was performed in immunocompromised female NSG mice. The mice (5 per group) were divided into 3 groups and treated according to the protocol approved by the Institutional Animal Care and Use Committee (IACUC) of the University of Granada and the Regional Government of Andalusia according to the European Directive on the protection of animals used for scientific purposes (2010/63/EU) and Spanish law (Royal Decree 53/2013). […]

## COc1cccc2c1C(=O)c1c(O)c3c(c(O)c1C2=O)C[C@@](O)(C(=O)CO)C[C@@H]3O[C@H]1C[C@H](N)[C@H](O)[C@H](C)O1 [doxorubicin]
[1]; NSG mice, listed as DOX
  external side effects observed: high cutaneous toxicity caused in the tail
[1]; NSG mice, listed as free DOX
  external side effects observed: weight loss, goose bumps, behaviour disorders, and damaged tail
[1]; after 30 days of treatment, NSG mice
  percentage of survival: 30%
[1]; compared with untreated control mice or mice treated with theranostic NPs
  weight of mice during treatment: significant weight reduction
[1]; day 30, cage with camera
  motor activity (distance travelled in 24 hours): significant decrease in mouse mobility
[2]; haematoxylin/eosin and DAPI staining after treatment, vs control group
  histological analysis of xenograft tumour tissues (cellularity): cellularity decreased significantly
[2]; intravenous every 3 days for 43 days, NSG mice, n=5 per group, vs PBS
  therapeutic effect on tumour growth / tumour volume: significant inhibition of tumour growth
[2]; intravenous every 3 days, NSG mice
  time after which inhibition of tumour growth was significant: 3 weeks
